Experimental data taken from patent publication EP1161410B1, “RETINOID ANTAGONISTS AND USE THEREOF” (Basilea Pharmaceutica AG, priority 1999, dated 2000).

Legend:
IL-12 [1] = experiment: IL-12 production by activated monocytes (SAC + IFN-γ), ELISA; type: cell-based, human; settings: SAC+IFN-γ alone 120-126 pg/ml
Procedure: THP-1 cells were obtained from American Tissue Culture Collection and cultured in complete medium. […] Exp. Med. 183, 147-157 (1996)]. […] Supernatants were collected after 48 hours and freezed at -20 °C until assayed [[…]-Bordignon et al., J. Clin. Invest. 100, 1513-1519 (1997)]. […] Clin. Invest. 93, 1733-1739 (1994)]. […] Absorbance was read at 450-650 nm. The unknown IL-12 concentrations of the samples were read from the corresponding standard curve and multiplied by the corresponding dilution factor. […] Serial dilutions (1 μM-1 pM) were prepared in complete RPMI medium. 10 μl of each dilution was added to 1 ml culture.

IL-10 = IL-10 production by activated monocytes (SAC + IFN-γ); type: cell-based, human; settings: SAC+IFN-γ alone 1040 pg/ml
TNF-α = TNF-α production by activated monocytes (SAC + IFN-γ); type: cell-based, human; settings: SAC+IFN-γ alone 1840-2000 pg/ml
IL-12 [2] = experiment: IL-12 production by PBMC primed with IFNγ and stimulated with SAC; type: cell-based, human; settings: IFNγ+SAC alone 360
Procedure: THP-1 cells were obtained from American Tissue Culture Collection and cultured in complete medium. To assay for IL-12 production, THP-1 cells, 1.25 x 10^6 cells/ml, were stimulated with S. aureus Cowan strain (SAC) (1/1000) and human recombinant interferon-γ (huIFN-γ (1000 U/ml) [Ma et al., J. Exp. Med. 183, 147-157 (1996)]. Alternatively, 0.5 x 10^6 human peripheral blood mononuclear cells (PBMC) (1 ml culture in 48 well plates) were primed with huIFN-γ (1000 U/ml) for 16 hours at 37°C, and then stimulated with SAC (1/1000). Supernatants were collected after 48 hours and freezed at -20 °C until assayed [Panina-Bordignon et al., J. Clin. Invest. 100, 1513-1519 (1997)].
IL-12 production was measured by specific enzyme linked immuno sorbant assay (ELISA), using 20C2 antibody (rat anti human IL-12 heterodimer p40-p35), at 2.5 µg/ml in coating buffer, and peroxidase-conjugated 4D6 antibody (rat anti human IL-12) at 250 ng/ml in assay buffer as described [Zhang et al., J. Clin. Invest. 93, 1733-1739 (1994)]. Standard (recombinant human IL-12, 800 pg/ml to 6 pg/ml) and samples (100 µl) diluted in assay buffer were added to duplicate wells. Absorbance was read at 450-650 nm. The unknown IL-12 concentrations of the samples were read from the corresponding standard curve and multiplied by the corresponding dilution factor. Maximal IL-12 production varied between 200 and 400 pg/ml.
Lyophilized retinoid antagonists were diluted in DMSO under yellow light, on ice at a concentration of 2 mM. Serial dilutions (1 µM-1 pM) were prepared in complete RPMI medium. 10 µl of each dilution was added to 1 ml culture.

neonatal mouse calvaria = experiment: Bone resorption assay, calcium release from neonatal mouse calvaria in tissue culture; type: cell-based, Swiss albino mice; settings: for bone resorption induced by six different agents: inducers: calcitriol, all-trans RA, 9-cis RA, PGE2, TNFα, IL-1α (tables 6 to 11)
Procedure: A series of agents are known to induce or stimulate bone resorption. In this assay retinoid antagonists were tested for their capacity to inhibit or counteract the bone resorptive activity of bone resorption inducers.
Bone resorption was determined by quantification of calcium release from neonatal mouse calvaria (skull bones) in a tissue culture system, into supernatant medium. Calvaria were prepared from 4 days old mice (body weight 4-4.5 g) of time controlled mated Swiss albino mice. Frontal and parietal calvarial parts were dissected under a stereo-microscope and halved along the median suture. Half calvaria from all animals were randomly distributed to 6-well culture dishes (NUNC), containing stainless steel grids to support the bones at the interface of gas and medium. The tissue is incubated in BGJ medium (Bioconcept, Switzerland) according to a specified formulation supplemented with 1 mg/ml BSA (bovine serum albumin, SIGMA). Calvaria were cultured at 37°C in humidified atmosphere of 5% CO2 and 95% air. After 24 hours of preincubation, they were transferred to new dishes containing 1.7 ml fresh medium and test substances. Bone resorption inducers and retinoid antagonists were tested either as single agents or in combination. The cultures were then run for 72 hours. Calcium concentrations in culture supernatants were measured immediately after each incubation period. Stable, free calcium was determined in 25 µl samples with a spectrophotometric method using a methylthymol blue containing kit (Biomérieux), (E.M. Gindler and J.D. King, Am. J. Clin. Pathol. 1972, 58, 376-382). The resorptive response was expressed as µg calcium released per half calvarium during 3 days treatment.
Additional tests were done to examine calcium remaining in the calvaria. Calcium was extracted with 5% trichloroacetic acid (TCA) and determined in 50 µl samples after neutralization with NaOH. Furthermore, bone tissue viability was determined to exclude cytotoxicity. This was quantified by the colorimetric MTT tetrazolium test (T. Mosmann, J. Immunol. Methods 1983, 65, 55-63).
Bone resorption induced by the various agents was determined by measuring the amount of calcium released from half calvaria into the supernatant medium. Calcium release is indicated in µg per half calvarium in 1.7 ml medium. Calcium release from calvaria into medium as well as uptake of calcium from medium into calvaria can be measured. Efficacy of retinoid antagonists to inhibit the activity of bone resorption inducers is expressed as % inhibition. It is calculated from the difference between the amount of released calcium by bone resorption inducers alone and the amount of released calcium by their combination with retinoid antagonists. Retinoid antagonists alone induce neither calcium release nor uptake. Basal resorption rate in vehicle controls was 5 or less than 5%.

[3] = retinoid antagonist (1 µg) added after 16 hours together with SAC
[4] = retinoid antagonist (1 µg) added at time 0 together with IFNγ
[5] = 9-cis RA 0.1 μM + retinoid antagonist 1 μM
[6] = 9-cis RA 0.1 μM + retinoid antagonist 10 μM
[7] = 9-cis RA 1 μM + retinoid antagonist 10 μM
[8] = Calcitriol 0.3 nM + retinoid antagonist 1 µM
[9] = Calcitriol 1 nM + retinoid antagonist 1 µM
[10] = Calcitriol 3 nM + retinoid antagonist 1 µM
[11] = all-trans RA 0.1 μM + retinoid antagonist 1 μM
[12] = all-trans RA 0.1 μM + retinoid antagonist 10 μM
[13] = all-trans RA 1 μM + retinoid antagonist 10 μM

SMILES	IL-12 (IL-12 [1]; antagonist 100 nM)	IL-12 (IL-12 [1]; antagonist 1000 nM)	IL-10 (IL-10; antagonist 10 nM)	IL-10 (IL-10; antagonist 100 nM)	IL-10 (IL-10; antagonist 1000 nM)	TNF-α (TNF-α; antagonist 10 nM)	TNF-α (TNF-α; antagonist 100 nM)	TNF-α (TNF-α; antagonist 1000 nM)	PBMC IL-12 (IL-12 [2]; [3])	PBMC IL-12 (IL-12 [2]; [4])	Calcium release per half calvarium (neonatal mouse calvaria; [5])	Inhibition of bone resorption by retinoid antagonists (neonatal mouse calvaria; [5])	Calcium release per half calvarium (neonatal mouse calvaria; [6])	Inhibition of bone resorption by retinoid antagonists (neonatal mouse calvaria; [6])	Calcium release per half calvarium (neonatal mouse calvaria; [7])	Inhibition of bone resorption by retinoid antagonists (neonatal mouse calvaria; [7])	Calcium release per half calvarium (neonatal mouse calvaria; [8])	Inhibition of bone resorption by retinoid antagonists (neonatal mouse calvaria; [8])	Calcium release per half calvarium (neonatal mouse calvaria; [9])	Inhibition of bone resorption by retinoid antagonists (neonatal mouse calvaria; [9])	other results
CCCCOc1c(\C(C)=C/C=C/C(C)=C/C(=O)O)cc(C(C)(C)C)cc1C(C)(C)C [Compound B, (2E,4E,6Z)-7-(3,5-di-tert.butyl-2-butyloxyphenyl]-3-methyl-2,4,6-octatrienoic acid]	161 pg/mL	298 pg/mL	1020 pg/mL	1521 pg/mL	1700 pg/mL	1484 pg/mL	1812 pg/mL	1560 pg/mL	367 pg/mL	568 pg/mL	2 ± 5 µg	33.3%	-4 ± 3 µg	123.5%	-6 ± 2 µg	133.3%	-1 ± 2 µg	125%	5 ± 3 µg	44.4%	IL-12 (IL-12 [1]; antagonist 10 nM): 106 pg/mL; Calcium release per half calvarium (neonatal mouse calvaria; [10]): 4 ± 4 µg; Inhibition of bone resorption by retinoid antagonists (neonatal mouse calvaria; [10]): 69.2%; Calcium release per half calvarium (neonatal mouse calvaria; [11]): 5 ± 4 µg; Inhibition of bone resorption by retinoid antagonist (neonatal mouse calvaria; [11]): 61.5%; Calcium release per half calvarium (neonatal mouse calvaria; [12]): -3 ± 4 µg; Inhibition of bone resorption by retinoid antagonist (neonatal mouse calvaria; [12]): 123.1%; Calcium release per half calvarium (neonatal mouse calvaria; [13]): 10 ± 7 µg; Inhibition of bone resorption by retinoid antagonist (neonatal mouse calvaria; [13]): 41.2%; bone resorption induced by six different agents (neonatal mouse calvaria): counteract bone resorption
CCCCCCCOc1cc2c(cc1/C(C)=C/c1ccc(C(=O)O)cc1)C(C)(C)CCS2(=O)=O [Compound H, p-[(E)-2-[3',4'-Dihydro-4',4'-dimethyl-7'-(beptyloxy)-2'H-1-benzothiopyran-6'-yl]propenyl]benzoic acid 1',1'-dioxide]	102 pg/mL	251 pg/mL	1060 pg/mL	1050 pg/mL	1343 pg/mL	1392 pg/mL	1600 pg/mL	1912 pg/mL	401 pg/mL	503 pg/mL	4 ± 5 µg	82%	-5 ± 3 µg	123%	28 ± 7 µg	30%	0 ± 3 µg	100%	4 ± 3 µg	55.6%	Calcium release per half calvarium (neonatal mouse calvaria; [10]): 11 ± 6 µg; Inhibition of bone resorption by retinoid antagonists (neonatal mouse calvaria; [10]): 15.4%; Calcium release per half calvarium (neonatal mouse calvaria; [11]): 2 ± 11 µg; Inhibition of bone resorption by retinoid antagonist (neonatal mouse calvaria; [11]): 89.5%; Calcium release per half calvarium (neonatal mouse calvaria; [12]): -5 ± 4 µg; Inhibition of bone resorption by retinoid antagonist (neonatal mouse calvaria; [12]): 126.3%; Calcium release per half calvarium (neonatal mouse calvaria; [13]): -2 ± 3 µg; Inhibition of bone resorption by retinoid antagonist (neonatal mouse calvaria; [13]): 108.7%; bone resorption induced by six different agents (neonatal mouse calvaria): counteract bone resorption
